Assay results published in publication PMC6547681 (Nature Communications, 2019).
Values joined by “and” are separate entries in the source; they are usually repeats but may differ in a detail not shown here. Equal values may be shown once.

Tested on: BCL-2 WT
Assay: Steady-state competition SPR against immobilised BIMBH3 peptide, BCL-2 WT
Format: binding, human
Description: SPR experiments were performed as previously described. […] The lowest concentrations used in direct binding experiments were 1 nM for BIAcore 4000 and 0.1 nM for BIAcore S200 instruments, concentrations below these were below the sensitivity thresholds for the instruments. […] Direct binding experiments were fitted to a 1:1 binding site kinetic model, fitting on and off rates, in BIAevaluation software. For competition experiments steady-state responses were determined in BIAevaluation software according to the software defaults in affinity evaluation mode averaging responses for 5 sec. […] All affinity measurements were performed in at least two independent experiments using independent protein preparations.

O=C(c1cc(-c2cc3c(cc2C(=O)N2Cc4ccccc4C[C@H]2CN2CCOCC2)OCO3)n2c1CCCC2)N(c1ccccc1)c1ccc(O)cc1 [S55746]
S55746 binding weaker than venetoclax (BCL-2 WT): > 10 fold and 10 fold | Raw data values in Figure 3f (SPR response) (S55746 concentration 20, BCL-2 concentration 1 nM, independent experiment 2): 2.733 | Raw data values in Figure 3f (SPR response) (S55746 concentration 20, BCL-2 concentration 3 nM, independent experiment 2): 5.054 | Raw data values in Figure 3f (SPR response) (S55746 concentration 20, BCL-2 concentration 4 nM, independent experiment 2): 7.385 | Raw data values in Figure 3f (SPR response) (S55746 concentration 20, BCL-2 concentration 6 nM, independent experiment 2): 10.4479 | Raw data values in Figure 3f (SPR response) (S55746 concentration 20, BCL-2 concentration 8 nM, independent experiment 2): 13.83 | Raw data values in Figure 3f (SPR response) (S55746 concentration 20, BCL-2 concentration 9 nM, independent experiment 2): 18.2167 | Raw data values in Figure 3f (SPR response) (S55746 concentration 20, BCL-2 concentration 10 nM, independent experiment 1): 14.9942 | Raw data values in Figure 3f (SPR response) (S55746 concentration 20, BCL-2 concentration 10 nM, independent experiment 3): 5.545 | Raw data values in Figure 3f (SPR response) (S55746 concentration 20, BCL-2 concentration 11 nM, independent experiment 2): 22.9055 | Raw data values in Figure 3f (SPR response) (S55746 concentration 20, BCL-2 concentration 12 nM, independent experiment 2): 29.6258 | Raw data values in Figure 3f (SPR response) (S55746 concentration 20, BCL-2 concentration 16 nM, independent experiment 2): 52.2757 | Raw data values in Figure 3f (SPR response) (S55746 concentration 20, BCL-2 concentration 20 nM, independent experiment 1): 62.0337 | Raw data values in Figure 3f (SPR response) (S55746 concentration 20, BCL-2 concentration 20 nM, independent experiment 3): 30.5673 | Raw data values in Figure 3f (SPR response) (S55746 concentration 20, BCL-2 concentration 24 nM, independent experiment 2): 194.711 | Raw data values in Figure 3f (SPR response) (S55746 concentration 20, BCL-2 concentration 30 nM, independent experiment 1): 78.5463 | Raw data values in Figure 3f (SPR response) (S55746 concentration 20, BCL-2 concentration 30 nM, independent experiment 3): 46.9544 | Raw data values in Figure 3f (SPR response) (S55746 concentration 20, BCL-2 concentration 40 nM, independent experiment 1): 84.3215 | Raw data values in Figure 3f (SPR response) (S55746 concentration 20, BCL-2 concentration 40 nM, independent experiment 2): 278.992 | Raw data values in Figure 3f (SPR response) (S55746 concentration 20, BCL-2 concentration 40 nM, independent experiment 3): 55.2753 | Raw data values in Figure 3f (SPR response) (S55746 concentration 20, BCL-2 concentration 50 nM, independent experiment 1): 87.889 | Raw data values in Figure 3f (SPR response) (S55746 concentration 20, BCL-2 concentration 50 nM, independent experiment 3): 61.4638 | Raw data values in Figure 3f (SPR response) (S55746 concentration 20, BCL-2 concentration 60 nM, independent experiment 1): 89.8444 | Raw data values in Figure 3f (SPR response) (S55746 concentration 20, BCL-2 concentration 60 nM, independent experiment 3): 66.5259 | Raw data values in Figure 3f (SPR response) (S55746 concentration 20, BCL-2 concentration 70 nM, independent experiment 1): 91.3513 | Raw data values in Figure 3f (SPR response) (S55746 concentration 20, BCL-2 concentration 70 nM, independent experiment 3): 70.0896 | Raw data values in Figure 3f (SPR response) (S55746 concentration 20, BCL-2 concentration 80 nM, independent experiment 1): 91.9809 | Raw data values in Figure 3f (SPR response) (S55746 concentration 20, BCL-2 concentration 80 nM, independent experiment 3): 71.977 | Raw data values in Figure 3f (SPR response) (S55746 concentration 20, BCL-2 concentration 100 nM, independent experiment 1): 93.8895 | Raw data values in Figure 3f (SPR response) (S55746 concentration 20, BCL-2 concentration 100 nM, independent experiment 3): 77.7314 | Raw data values in Figure 3f (SPR response) (S55746 concentration 20, BCL-2 concentration 150 nM, independent experiment 1): 96.8618 | Raw data values in Figure 3f (SPR response) (S55746 concentration 20, BCL-2 concentration 150 nM, independent experiment 3): 85.769 | Raw data values in Figure 3f (SPR response) (S55746 concentration 20, BCL-2 concentration 200 nM, independent experiment 1): 97.7551 | Raw data values in Figure 3f (SPR response) (S55746 concentration 20, BCL-2 concentration 200 nM, independent experiment 3): 90.6286 | Raw data values in Figure 3f (SPR response) (S55746 concentration 40, BCL-2 concentration 1 nM, independent experiment 2): 1.748 | Raw data values in Figure 3f (SPR response) (S55746 concentration 40, BCL-2 concentration 3 nM, independent experiment 2): 3.274 | Raw data values in Figure 3f (SPR response) (S55746 concentration 40, BCL-2 concentration 4 nM, independent experiment 2): 4.7441 | Raw data values in Figure 3f (SPR response) (S55746 concentration 40, BCL-2 concentration 6 nM, independent experiment 2): 5.884 | Raw data values in Figure 3f (SPR response) (S55746 concentration 40, BCL-2 concentration 8 nM, independent experiment 2): 7.971 | Raw data values in Figure 3f (SPR response) (S55746 concentration 40, BCL-2 concentration 9 nM, independent experiment 2): 9.582 | Raw data values in Figure 3f (SPR response) (S55746 concentration 40, BCL-2 concentration 10 nM, independent experiment 1): 5.808 | Raw data values in Figure 3f (SPR response) (S55746 concentration 40, BCL-2 concentration 10 nM, independent experiment 3): 2.581 | Raw data values in Figure 3f (SPR response) (S55746 concentration 40, BCL-2 concentration 11 nM, independent experiment 2): 11.5501 | Raw data values in Figure 3f (SPR response) (S55746 concentration 40, BCL-2 concentration 12 nM, independent experiment 2): 13.3285 | Raw data values in Figure 3f (SPR response) (S55746 concentration 40, BCL-2 concentration 16 nM, independent experiment 2): 18.1319 | Raw data values in Figure 3f (SPR response) (S55746 concentration 40, BCL-2 concentration 20 nM, independent experiment 1): 14.077 | Raw data values in Figure 3f (SPR response) (S55746 concentration 40, BCL-2 concentration 20 nM, independent experiment 3): 5.653 | Raw data values in Figure 3f (SPR response) (S55746 concentration 40, BCL-2 concentration 24 nM, independent experiment 2): 35.953 | Raw data values in Figure 3f (SPR response) (S55746 concentration 40, BCL-2 concentration 30 nM, independent experiment 1): 36.4319 | Raw data values in Figure 3f (SPR response) (S55746 concentration 40, BCL-2 concentration 30 nM, independent experiment 3): 15.4804 | Raw data values in Figure 3f (SPR response) (S55746 concentration 40, BCL-2 concentration 40 nM, independent experiment 1): 75.4873
